From patent US20230293518A1 (Edgewise Therapeutics, Inc., priority 2020, published 2023)

Target: skeletal myofibrils (myosin ATPase)
Assay: Skeletal Myofibril ATPase Assay
Type: biochemical
Details: Table 4A
Method: Example 12. Skeletal Myofibril ATPase Assay
Overview: Myosin ATPase activity is assessed by using a coupled reaction system, in which ADP generated by the myosin ATPase function is coupled to the disappearance of NADH through the pyruvate kinase/lactate dehydrogenase (PK-LDH) system. ATPase activity produces ADP, which is used as a substrate for PK to produce pyruvate and regenerate ATP. The pyruvate is then used as a substrate by LDH to oxidize NADH to NAD+. The rate of the reaction is monitored through the time-dependent disappearance of NADH using absorbance at 340 nm. Inhibition of ATPase activity by the assayed compounds is indicated by a reduced rate of NADH loss, relative to vehicle-treated controls, over the experimental time window. To assess the selectivity of the assayed compounds for skeletal myofibrils, the compounds are counter-screened in cardiac myofibrils.
Materials: The following stock solutions and reagents were used in the Skeletal Myofibril ATPase Assay:
Stock Solutions of pCa buffer. Combine PIPES, CaCl2, and EGTA solutions with 70 mL of water. Adjust pH to 7.0 and bring final volume to 100 mL.
Buffer A & Buffer B. Buffers were stored on ice until use.
Skeletal Myofibril ATPase Assay Procedure: BSA, ATP, NADH, PEP, and DTT solutions were thawed at room temperature, then transferred to ice. Pellet-frozen myofibrils were transferred with approximately twice the required volume into a sufficiently large tube and capped. Myofibrils were thawed by rolling in a water bath for approximately 15 min at room temperature and cooled on ice. Buffers A and B were prepared by adjusting volumes as necessary for required number of wells and stored on ice. 0.5 μL of the compounds to be assayed were added into wells. 25 μL of Buffer A was dispensed into the wells, followed by 25 μL of Buffer B. The wells were measured for absorbance at 340 nm, using a kinetic protocol in which the wells are read every 1.5-2 min for 45 min. The slope of the data was approximated by subtracting the minimum absorbance value from the maximum value for each well. This was accomplished either in the SoftMax Pro software or in a spreadsheet program such as Excel. Using GraphPad Prism 8.0, the data was normalized by assigning a value of 100% to the 1% DMSO vehicle wells. Typically, a normalized 0% value was simply assigned to a (Max−Min) value of 0. The normalized data was fit to a Four Parameter Logistic sigmoidal equation, constraining the bottom to be 0 or greater. Compounds of Table 1, 2, and 3 were tested and results of the assay appear in Tables 4a-4c. A=IC50 is less than or equal to 10 μM; B═IC50 is greater than 10 μM and less than 100 μM; C═IC50 is greater than 100 μM.

| SMILES | IC50 [µM] |
| --- | --- |
| CC(C)[C@@](C)(C#N)NC(=O)Cn1nc(-c2ccc(OC(F)F)nc2)ccc1=O (stereo in doubt) [Compound I-34, N-(2-cyano-3-methylbutan-2-yl)-2-(3-(6-(difluoromethoxy)pyridin-3-yl)-6-oxopyridazin-1(6H)-yl)acetamide] | 10 to 100 |
| CCNC(=O)Cn1nc(-c2cnc(Nc3ccc(Cl)cc3)nc2)ccc1=O [Compound I-1, 2-(3-(2-((4-chlorophenyl)amino)pyrimidin-5-yl)-6-oxopyridazin-1(6H)-yl)-N-ethylacetamide] | < 10 |
| CCNC(=O)Cn1nc(-c2cnc(Nc3ccc(F)cc3)nc2)ccc1=O [Compound I-2, N-ethyl-2-(3-(2-((4-fluorophenyl)amino)pyrimidin-5-yl)-6-oxopyridazin-1(6H)-yl)acetamide] | < 10 |
| O=C(Cn1nc(-c2ccc(OC(F)F)nc2)ccc1=O)NC1CCC1 [Compound I-4, N-cyclobutyl-2-(3-(6-(difluoromethoxy)pyridin-3-yl)-6-oxopyridazin-1(6H)-yl)acetamide] | < 10 |
| COc1ccc(-c2ccc(=O)n(CC(=O)NCc3ccccc3Cl)n2)cn1 [Compound I-5, N-(2-chlorobenzyl)-2-(3-(6-methoxypyridin-3-yl)-6-oxopyridazin-1(6H)-yl)acetamide] | < 10 |
| CCNC(=O)Cn1nc(-c2ccc(N3CC(F)(F)C3)nc2)ccc1=O [Compound I-6, 2-(3-(6-(3,3-difluoroazetidin-1-yl)pyridin-3-yl)-6-oxopyridazin-1(6H)-yl)-N-ethylacetamide] | 10 to 100 |
| CCNC(=O)Cn1nc(-c2ccc(OC(F)F)nc2)ccc1=O [Compound I-7, 2-[3-[6-(difluoromethoxy)pyridin-3-yl]-6-oxo-1,6-dihydropyridazin-1-yl]-N-ethylacetamide] | < 10 |
| CCNC(=O)Cn1nc(-c2cnc(OCC(F)(F)F)nc2)ccc1=O [Compound I-8, N-ethyl-2-(6-oxo-3-(2-(2,2,2-trifluoroethoxy)pyrimidin-5-yl)pyridazin-1(6H)-yl)acetamide] | < 10 |
| CCNC(=O)Cn1nc(-c2ccc(OCCC(F)(F)F)nc2)ccc1=O [Compound I-10, N-ethyl-2-[6-oxo-3-[6-(3,3,3-trifluoropropoxy)pyridin-3-yl]-1,6-dihydropyridazin-1-yl]acetamide] | 10 to 100 |
| O=C(Cn1nc(-c2ccc(OC(F)F)nc2)ccc1=O)NC12CC(C1)C2 [Compound I-11, N-(bicyclo[1.1.1]pentan-1-yl)-2-(3-(6-(difluoromethoxy)pyridin-3-yl)-6-oxopyridazin-1(6H)-yl)acetamide] | 10 to 100 |
| CCNC(=O)Cn1nc(-c2ccc(C3CC3)nc2)ccc1=O [Compound I-12, 2-(3-(6-cyclopropylpyridin-3-yl)-6-oxopyridazin-1(6H)-yl)-N-ethylacetamide] | 10 to 100 |
| CCNC(=O)Cn1nc(-c2ccc(OCC(F)(F)F)nc2)ccc1=O [Compound I-13, N-ethyl-2-(6-oxo-3-(6-(2,2,2-trifluoroethoxy)pyridin-3-yl)pyridazin-1(6H)-yl)acetamide] | 10 to 100 |
| CCNC(=O)Cn1nc(-c2ccc(OC(F)(F)F)nc2)ccc1=O [Compound I-14, N-ethyl-2-(6-oxo-3-(6-(trifluoromethoxy)pyridin-3-yl)pyridazin-1(6H)-yl)acetamide] | 10 to 100 |
| CC1(NC(=O)Cn2nc(-c3ccc(OC(F)F)nc3)ccc2=O)CCC1 [Compound I-15, 2-(3-(6-(difluoromethoxy)pyridin-3-yl)-6-oxopyridazin-1(6H)-yl)-N-(1-methylcyclobutyl) acetamide] | 10 to 100 |
| COc1ccc(-c2ccc(=O)n(CC(=O)NC(C)C)n2)cn1 [Compound I-16, N-isopropyl-2-(3-(6-methoxypyridin-3-yl)-6-oxopyridazin-1(6H)-yl)acetamide] | 10 to 100 |
| O=C(Cn1nc(-c2ccc(OC(F)F)nc2)ccc1=O)N[C@H]1CC12CC2 [Compound I-17, (S)-2-(3-(6-(difluoromethoxy)pyridin-3-yl)-6-oxopyridazin-1(6H)-yl)-N-(spiro[2.2]pentan-1-yl)acetamide] | 10 to 100 |
| CCNC(=O)Cn1nc(-c2ccc(N3CC(C)(C)C3)nc2)ccc1=O [Compound I-18, 2-(3-(6-(3,3-dimethylazetidin-1-yl)pyridin-3-yl)-6-oxopyridazin-1(6H)-yl)-N-ethylacetamide] | 10 to 100 |

| SMILES | IC50 [µM] |
| --- | --- |
| CCNC(=O)Cn1nc(-c2ccc(N3CCC34COC4)nc2)ccc1=O [Compound I-19, 2-(3-(6-(6-oxa-1-azaspiro[3.3]heptan-1-yl)pyridin-3-yl)-6-oxopyridazin-1(6H)-yl)-N-ethylacetamide] | 10 to 100 |
| CCC(C)(C)NC(=O)Cn1nc(-c2ccc(OC(F)F)nc2)ccc1=O [Compound I-20, 2-(3-(6-(difluoromethoxy)pyridin-3-yl)-6-oxopyridazin-1(6H)-yl)-N-(tert-pentyl)acetamide] | 10 to 100 |
| CCNC(=O)Cn1nc(-c2ccc(Oc3ccc(F)cc3)nc2)ccc1=O [Compound I-21, N-ethyl-2-(3-(6-(4-fluorophenoxy)pyridin-3-yl)-6-oxopyridazin-1(6H)-yl)acetamide] | 10 to 100 |
| CCNC(=O)Cn1nc(-c2ccc(OCC3COC3)nc2)ccc1=O [Compound I-22, N-ethyl-2-(3-(6-(oxetan-3-ylmethoxy)pyridin-3-yl)-6-oxopyridazin-1(6H)-yl)acetamide] | 10 to 100 |
| CCNC(=O)Cn1nc(-c2ccc(OCC3(F)COC3)nc2)ccc1=O [Compound I-23, N-ethyl-2-(3-(6-((3-fluorooxetan-3-yl)methoxy)pyridin-3-yl)-6-oxopyridazin-1(6H)-yl)acetamide] | 10 to 100 |
| CCNC(=O)Cn1nc(-c2ccc(OCC3(C)COC3)nc2)ccc1=O [Compound I-24, N-ethyl-2-(3-(6-((3-methyloxetan-3-yl)methoxy)pyridin-3-yl)-6-oxopyridazin-1(6H)-yl)acetamide] | 10 to 100 |
| CCNC(=O)Cn1nc(-c2ccc(OC3COC3)nc2)ccc1=O [Compound I-25, N-ethyl-2-(3-(6-(oxetan-3-yloxy)pyridin-3-yl)-6-oxopyridazin-1(6H)-yl)acetamide] | > 100 |
| CCNC(=O)Cn1nc(-c2ccc(OCCN(C)C)nc2)ccc1=O [Compound I-26, 2-(3-(6-(2-(dimethylamino)ethoxy)pyridin-3-yl)-6-oxopyridazin-1(6H)-yl)-N-ethylacetamide] | > 100 |
| CCNC(=O)Cn1nc(-c2ccc(OC(C)C)nc2)ccc1=O [Compound I-27, N-ethyl-2-(3-(6-isopropoxypyridin-3-yl)-6-oxopyridazin-1(6H)-yl)acetamide] | > 100 |
| CCNC(=O)Cn1nc(-c2ccc(OCCCN(C)C)nc2)ccc1=O [Compound I-28, 2-(3-(6-(3-(dimethylamino)propoxy)pyridin-3-yl)-6-oxopyridazin-1(6H)-yl)-N-ethylacetamide] | > 100 |
| C[C@H](NC(=O)Cn1nc(-c2ccc(OC(F)F)nc2)ccc1=O)c1ccnn1C [Compound I-29, (S)-2-(3-(6-(difluoromethoxy)pyridin-3-yl)-6-oxopyridazin-1(6H)-yl)-N-(1-(1-methyl-1H-pyrazol-5-yl)ethyl)acetamide] | > 100 |
| Cn1nccc1CNC(=O)Cn1nc(-c2ccc(OC(F)F)nc2)ccc1=O [Compound I-30, 2-(3-(6-(difluoromethoxy)pyridin-3-yl)-6-oxopyridazin-1(6H)-yl)-N-((1-methyl-1H-pyrazol-5-yl)methyl)acetamide] | > 100 |
| CCNC(=O)Cn1nc(-c2ccc(N3CC4(COC4)C3)nc2)ccc1=O [Compound I-31, 2-(3-(6-(2-oxa-6-azaspiro[3.3]heptan-6-yl)pyridin-3-yl)-6-oxopyridazin-1(6H)-yl)-N-ethylacetamide] | > 100 |
| CCNC(=O)Cn1nc(-c2ccc(N3CC4(C3)CS(=O)(=O)C4)nc2)ccc1=O [Compound I-32, 2-(3-(6-(2,2-dioxido-2-thia-6-azaspiro[3.3]heptan-6-yl)pyridin-3-yl)-6-oxopyridazin-1(6H)-yl)-N-ethylacetamide] | > 100 |
| O=C(Cn1nc(-c2ccc(OC(F)F)nc2)ccc1=O)NC1CC(F)(F)C1 [Compound I-33, N-(3,3-difluorocyclobutyl)-2-(3-(6-(difluoromethoxy)pyridin-3-yl)-6-oxopyridazin-1(6H)-yl)acetamide] | > 100 |
| CC(C)(C#N)NC(=O)Cn1nc(-c2ccc(OC(F)F)nc2)ccc1=O [Compound I-35, N-(2-cyanopropan-2-yl)-2-(3-(6-(difluoromethoxy)pyridin-3-yl)-6-oxopyridazin-1(6H)-yl)acetamide] | 10 to 100 |

Same assay, conditions: Table 4C

| SMILES | IC50 [µM] |
| --- | --- |
| COc1ccc(-c2ccc(=O)n(CC(=O)NCc3cc(Cl)ccc3Cl)n2)cc1 | < 10 |
